One test concerns human neutrophils. In words: Chemotaxis of human neutrophils. The format is cell-based. Here is the method: Chemotaxis assay. L1.2-CCR1 transfectants, THP-1 cells, human monocytes and human neutrophils were collected by centrifugation and resuspended in HBSS containing 0.1% BSA. Chemotaxis assays were performed in 96-well ChemoTx® microplates (Neuroprobe, Rockville, Md.) as follows. Chemokines were added to the lower wells (final volume 29 μL), and 20 μL of cell suspension (5×10^6 cells/mL) was added to the polycarbonate filter (3 μm pore size for neutrophils, 5 μm for other 3 cell types). After incubation at 37° C. in the presence of 5% CO2 for 1 hr (neutrophils), 90 min (monocytes) or 2 h (THP-1 and L1.2-CCR1), cells were removed from the upper surface of the filter by scraping. Cells that migrated into the lower chamber were quantified by using the CyQuant cell proliferation assay kit (Molecular Probes, Eugene, Oreg.) and analyzed with a Tecan (Durham, N.C.) fluorimeter (excitation at 480 nm, emission at 530 nm). Data were analyzed and plotted in arbitrary units of fluorescence using Prism (GraphPad Software, San Diego, Calif.).
Chemotaxis assays. L1.2-CCR1 and L1.2-FPRL1 transfectants, monocytes and neutrophils were collected by centrifugation and resuspended in HBSS with 0.1% BSA. The assays were performed in 96-well ChemoTx® microplates (Neuroprobe, Rockville, Md.). Chemokines were diluted in HBSS with 0.1% BSA and added to the lower wells (final volume 29 μL), then 20 μL of cell suspension (5×10^6 cells/mL for monocytes; 2.5×10^6 cells/mL for neutrophils) were added to the polycarbonate filters (5 μm pore size for monocytes and FPRL1 transfectants; 3 μm pore size for neutrophils). After incubation for 90 min (37° C., 100% humidity, 5% CO2), the filters were removed and the cells that migrated into the lower chamber were quantified by using the CyQuant cell proliferation assay kit (Molecular Probes, Oreg.).

Another test relates to leukocytes (neutrophils). Kind of test: Leukocyte recruitment to skin after intradermal injection. The format is in vivo. As to conditions: 2 μg intradermally, c57Bl/6 and BALB/c mice, 6 hours. Here is the method:
Immunohistochemistry. BALB/c and c57Bl/6 mice were injected intradermally with 50 μl sterile saline with or without 2 μg SHAAGtide. 6 hours later, mice were euthanized and the skin surrounding the injection site was excised. After immersion in 10% neutral-buffered formalin for 18-24 hours, the skin biopsy was processed in graded alcohols and embedded in paraffin wax. 5 μm-wide sections were cut on a Leica microtome, transferred to glass slides, deparaffinized in xylenes, and hydrated through graded alcohols. The sections were either stained with hematoxylin and eosin (Sigma, St. Louis Mo.) or stained immunohistochemically for neutrophils as follows. The slides were immersed in Target Retrieval solution (Dako, Carpinteria Calif.) for 20 minutes at 90° C., rinsed with water and immersed in tris-buffered saline (TBS) containing 2% bovine serum albumin for 20 minutes. The sections were then exposed to rat anti-mouse neutrophil monoclonal antibody (Accurate Chemical and Scientific, Westbury N.Y.) or rat IgG2a isotype control antibody (BD Pharmingen, San Diego Calif.) for 1 hour, rinsed with TBS, and exposed to biotinylated goat anti-rat Ig (Dako) for 30 minutes. The sections were then rinsed with TBS, stained with the ABC-AP and fuchsin reagents (both from Dako), rinsed with water, and counterstained with hematoxylin for 2 minutes. […]

The target in the next test is T1, CCR1 (Homo sapiens, UniProt P32246).
T1 sequence (P32246 1-355): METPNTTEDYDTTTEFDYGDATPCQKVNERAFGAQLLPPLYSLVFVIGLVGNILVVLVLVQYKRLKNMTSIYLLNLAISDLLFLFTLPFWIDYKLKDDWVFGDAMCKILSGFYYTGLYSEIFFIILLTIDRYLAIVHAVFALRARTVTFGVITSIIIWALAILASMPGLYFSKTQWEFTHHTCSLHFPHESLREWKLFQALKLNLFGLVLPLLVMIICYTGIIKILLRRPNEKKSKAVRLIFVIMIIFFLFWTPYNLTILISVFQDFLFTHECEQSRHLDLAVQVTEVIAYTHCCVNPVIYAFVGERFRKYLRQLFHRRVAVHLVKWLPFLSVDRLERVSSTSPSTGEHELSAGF
Kind of test: Competition binding with 125I-MIP-1α on L1.2-CCR1 cells. Further details: endogenous in cells; host or cells: human CD14+ monocytes from buffy coats. Here is the method:
Binding assay. Competition binding studies were conducted using monocytes, L1.2-CCR1 or L1.2-FPRL1 cells. Cells were incubated for 3 hr at 4° C. with ^125I-MIP-1α (final concentration ˜0.05 nM) or ^125I-WKYMVm (final concentration ˜0.01 nM) in buffer (25 mM HEPES, 140 mM NaCl, 1 mM CaCl2, 5 mM MgCl2 and 0.2% BSA, adjusted to pH 7.1) in the presence of increasing amounts of unlabeled chemokine. Reactions were aspirated onto PEI-treated GF/B glass filters using a cell harvester (Packard). Filters were washed twice (25 mM HEPES, 500 mM NaCl, 1 mM CaCl2, 5 mM MgCl2, adjusted to pH 7.1). Scintillant (MicroScint-10; 35 μl) was added to the filters and counted in a Packard Topcount scintillation counter. Data were analyzed and plotted using Prism (GraphPad Software, San Diego, Calif.).

Entries after “also recorded” stand apart in the source; their conditions may differ. Where no end group is shown, it is not given here.

With MLWRRKIGPQMTLSHAAG [SHAAGtide], the chemotaxis entry in the test with human neutrophils is reported as “vigorous chemotaxis”. Besides, the “mice with recruitment of leukocytes (primarily neutrophils) into the subcutis region of the dermis” value in the test on leukocytes (neutrophils) is given as 6 of 6. In addition, the “inhibition of 125I-MIP-1α binding” value at CCR1 is given as “unable to inhibit binding; also recorded: does not bind CCR1”.

B1: CCL23β Δ24: truncated form of CCL23β lacking the 24-residue N-terminal domain, beginning with the SHAAGtide insertion (protein, listed as Homo sapiens)
chain: MLWRRKIGPQMTLSHAAGFHATSADCCISYTPRSIPCSLLESYFETNSECSKPGVIFLTKKGRRFCANPSDKQVQVCMRMLKLDTRIKTRKN
In the case of B1, the chemotaxis result in the test on human neutrophils is “vigorous chemotaxis”.
